System: RPMI-8402
Assay: selective drug sensitivity score (sDSS, relative to normal bone marrow) (sDSS (score)); higher = more potent and effective on the cell line relative to normal bone marrow cells
Conditions: 72 h
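Note: ALL cell lines in 384-well plates, five doses spanning 10,000-fold, each plate scaled between vehicle and 100 µmol/L benzalkonium chloride controls, sDSS an adapted area-under-curve metric.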

Row | SMILES | selective drug sensitivity score
1 | COc1cc(CCc2cc(NC(=O)c3ccc(N4CC(C)NC(C)C4)cc3)n[nH]2)cc(OC)c1 (stereo not given) [AZD4547] (top concentration 1000 nM) | -0.14
2 | CN(C)C(=O)c1ccc(S(=O)(=O)c2ccc(NC(=O)[C@@](C)(O)C(F)(F)F)c(Cl)c2)cc1 [AZD7545] (top concentration 10000 nM) | 5.7
3 | COc1cc(C)c(/C=C/C(C)=C/C=C/C(C)=C/C(=O)O)c(C)c1C [Acitretin] (top concentration 10000 nM) | -1.6
4 | CCC1(c2ccc(N)cc2)CCC(=O)NC1=O (stereo not given) [Aminoglutethimide] (top concentration 10000 nM) | 0
5 | CNC(=O)c1ccc(N2C(=S)N(c3cnc(C#N)c(C(F)(F)F)c3)C(=O)C23CCC3)cc1F [Apalutamide] (top concentration 10000 nM) | 0
6 | N#CC1(c2ccc(NC(=O)c3cccnc3NCc3ccncc3)cc2)CCCC1 [Apatinib] (top concentration 10000 nM) | 0.1
7 | Cc1nc2cccc(N)c2c(=O)n1C1CCC(=O)NC1=O (stereo not given) [Avadomide (CC122)] (top concentration 10000 nM) | 0
8 | Nc1nc(Nc2ccc3c(c2)CC[C@@H](N2CCCC2)CC3)nn1-c1cc2c(nn1)-c1ccccc1CCC2 [BGB324] (top concentration 10000 nM) | 2.92
9 | CC1(C)C(C(=O)Nc2ccc(S(=O)(=O)c3ccc(NC(=O)C4C(C)(C)C4(C)C)cc3)cc2)C1(C)C [BRD7116] (top concentration 10000 nM) | 0.96

System: SEM cells
Assay: as above
Conditions: 72 h

Row | SMILES | selective drug sensitivity score
10 | CNC(=O)c1ccc(C)c(-n2c(C)cc(OCc3ccc(F)cc3F)c(Br)c2=O)c1 (top concentration 1000 nM) | 1.9
11 | CONC(=O)c1ccccc1Nc1cc(Nc2cc(C)nn2C(C)C)ncc1Cl (top concentration 1000 nM) | -0.94
12 | CCOc1ccn(-c2ccc(F)cc2)c(=O)c1C(=O)Nc1ccc(Oc2ccnc(N)c2Cl)c(F)c1 (top concentration 2500 nM) | 4.9
13 | CC[C@@H]1[C@H](F)C(=O)N[C@@H]1COc1nccc2cc(C(N)=O)c(OC)cc12 (top concentration 10000 nM) | 1.48
14 | C[C@H]1C[C@@H](n2c(Nc3ccc(OC(F)(F)F)cc3)nc3cc(CCC(=O)O)ccc32)CC(C)(C)C1 (top concentration 10000 nM) | 0.16
15 | O=C(NCc1ccncc1)C12CC3CC(C1)CC(c1ccc(Cl)cc1)(C3)C2 (top concentration 50000 nM) | 3.88
16 | O=C(O)c1ccc(CN2CCC(CN[C@@H]3C[C@H]3c3ccccc3)CC2)cc1 (top concentration 100000 nM) | 0.28
17 | COc1cc(N2CCN(C)CC2)ccc1Nc1nccc(-c2cn(C)c3cnccc23)n1 [AZ191] (top concentration 10000 nM) | 5.58
18 | Cc1cc(Nc2nc(N[C@@H](C)c3ncc(F)cn3)ncc2Cl)[nH]n1 [AZD1480] (top concentration 1000 nM) | -1.98
19 | COc1cc(CCc2cc(NC(=O)c3ccc(N4CC(C)NC(C)C4)cc3)n[nH]2)cc(OC)c1 (stereo not given) [AZD4547] (top concentration 1000 nM) | 0.36
20 | CN(C)C(=O)c1ccc(S(=O)(=O)c2ccc(NC(=O)[C@@](C)(O)C(F)(F)F)c(Cl)c2)cc1 [AZD7545] (top concentration 10000 nM) | 0.6
21 | COc1cc(C)c(/C=C/C(C)=C/C=C/C(C)=C/C(=O)O)c(C)c1C [Acitretin] (top concentration 10000 nM) | 0.4
22 | CCC1(c2ccc(N)cc2)CCC(=O)NC1=O (stereo not given) [Aminoglutethimide] (top concentration 10000 nM) | 0.3
23 | CNC(=O)c1ccc(N2C(=S)N(c3cnc(C#N)c(C(F)(F)F)c3)C(=O)C23CCC3)cc1F [Apalutamide] (top concentration 10000 nM) | 0
24 | N#CC1(c2ccc(NC(=O)c3cccnc3NCc3ccncc3)cc2)CCCC1 [Apatinib] (top concentration 10000 nM) | 1
25 | Cc1nc2cccc(N)c2c(=O)n1C1CCC(=O)NC1=O (stereo not given) [Avadomide (CC122)] (top concentration 10000 nM) | 0.9
26 | Nc1nc(Nc2ccc3c(c2)CC[C@@H](N2CCCC2)CC3)nn1-c1cc2c(nn1)-c1ccccc1CCC2 [BGB324] (top concentration 10000 nM) | 5.72
27 | CC1(C)C(C(=O)Nc2ccc(S(=O)(=O)c3ccc(NC(=O)C4C(C)(C)C4(C)C)cc3)cc2)C1(C)C [BRD7116] (top concentration 10000 nM) | -0.24

System: SUP-B15
Assay: as above
Conditions: 72 h

Row | SMILES | selective drug sensitivity score
28 | CNC(=O)c1ccc(C)c(-n2c(C)cc(OCc3ccc(F)cc3F)c(Br)c2=O)c1 (top concentration 1000 nM) | 0
29 | CONC(=O)c1ccccc1Nc1cc(Nc2cc(C)nn2C(C)C)ncc1Cl (top concentration 1000 nM) | -0.94
30 | CCOc1ccn(-c2ccc(F)cc2)c(=O)c1C(=O)Nc1ccc(Oc2ccnc(N)c2Cl)c(F)c1 (top concentration 2500 nM) | 3.5
31 | CC[C@@H]1[C@H](F)C(=O)N[C@@H]1COc1nccc2cc(C(N)=O)c(OC)cc12 (top concentration 10000 nM) | 0.98
32 | C[C@H]1C[C@@H](n2c(Nc3ccc(OC(F)(F)F)cc3)nc3cc(CCC(=O)O)ccc32)CC(C)(C)C1 (top concentration 10000 nM) | 2.16
33 | O=C(NCc1ccncc1)C12CC3CC(C1)CC(c1ccc(Cl)cc1)(C3)C2 (top concentration 50000 nM) | 0.18
34 | O=C(O)c1ccc(CN2CCC(CN[C@@H]3C[C@H]3c3ccccc3)CC2)cc1 (top concentration 100000 nM) | -0.52
35 | COc1cc(N2CCN(C)CC2)ccc1Nc1nccc(-c2cn(C)c3cnccc23)n1 [AZ191] (top concentration 10000 nM) | -2.72
36 | Cc1cc(Nc2nc(N[C@@H](C)c3ncc(F)cn3)ncc2Cl)[nH]n1 [AZD1480] (top concentration 1000 nM) | 0.02
37 | COc1cc(CCc2cc(NC(=O)c3ccc(N4CC(C)NC(C)C4)cc3)n[nH]2)cc(OC)c1 (stereo not given) [AZD4547] (top concentration 1000 nM) | -0.14
38 | CN(C)C(=O)c1ccc(S(=O)(=O)c2ccc(NC(=O)[C@@](C)(O)C(F)(F)F)c(Cl)c2)cc1 [AZD7545] (top concentration 10000 nM) | 4.9
39 | COc1cc(C)c(/C=C/C(C)=C/C=C/C(C)=C/C(=O)O)c(C)c1C [Acitretin] (top concentration 10000 nM) | -1.6
40 | CCC1(c2ccc(N)cc2)CCC(=O)NC1=O (stereo not given) [Aminoglutethimide] (top concentration 10000 nM) | 0
41 | CNC(=O)c1ccc(N2C(=S)N(c3cnc(C#N)c(C(F)(F)F)c3)C(=O)C23CCC3)cc1F [Apalutamide] (top concentration 10000 nM) | 0
42 | N#CC1(c2ccc(NC(=O)c3cccnc3NCc3ccncc3)cc2)CCCC1 [Apatinib] (top concentration 10000 nM) | 0.1
43 | Cc1nc2cccc(N)c2c(=O)n1C1CCC(=O)NC1=O (stereo not given) [Avadomide (CC122)] (top concentration 10000 nM) | 0
44 | Nc1nc(Nc2ccc3c(c2)CC[C@@H](N2CCCC2)CC3)nn1-c1cc2c(nn1)-c1ccccc1CCC2 [BGB324] (top concentration 10000 nM) | 3.02
45 | CC1(C)C(C(=O)Nc2ccc(S(=O)(=O)c3ccc(NC(=O)C4C(C)(C)C4(C)C)cc3)cc2)C1(C)C [BRD7116] (top concentration 10000 nM) | -0.14
